SMILES strings stand for the structures.

The experiment deals with T1, ΔF508-CFTR (Homo sapiens, UniProt P13569, DEL508-508).
T1 construct: expressed in transfected cells; host or cells: CFSMEo- (human CF submucosal gland epithelial cells, ΔF508/Q2X), transiently transfected by nucleofection
T1 sequence (P13569 with tags, fused parts or gaps DEL508-508): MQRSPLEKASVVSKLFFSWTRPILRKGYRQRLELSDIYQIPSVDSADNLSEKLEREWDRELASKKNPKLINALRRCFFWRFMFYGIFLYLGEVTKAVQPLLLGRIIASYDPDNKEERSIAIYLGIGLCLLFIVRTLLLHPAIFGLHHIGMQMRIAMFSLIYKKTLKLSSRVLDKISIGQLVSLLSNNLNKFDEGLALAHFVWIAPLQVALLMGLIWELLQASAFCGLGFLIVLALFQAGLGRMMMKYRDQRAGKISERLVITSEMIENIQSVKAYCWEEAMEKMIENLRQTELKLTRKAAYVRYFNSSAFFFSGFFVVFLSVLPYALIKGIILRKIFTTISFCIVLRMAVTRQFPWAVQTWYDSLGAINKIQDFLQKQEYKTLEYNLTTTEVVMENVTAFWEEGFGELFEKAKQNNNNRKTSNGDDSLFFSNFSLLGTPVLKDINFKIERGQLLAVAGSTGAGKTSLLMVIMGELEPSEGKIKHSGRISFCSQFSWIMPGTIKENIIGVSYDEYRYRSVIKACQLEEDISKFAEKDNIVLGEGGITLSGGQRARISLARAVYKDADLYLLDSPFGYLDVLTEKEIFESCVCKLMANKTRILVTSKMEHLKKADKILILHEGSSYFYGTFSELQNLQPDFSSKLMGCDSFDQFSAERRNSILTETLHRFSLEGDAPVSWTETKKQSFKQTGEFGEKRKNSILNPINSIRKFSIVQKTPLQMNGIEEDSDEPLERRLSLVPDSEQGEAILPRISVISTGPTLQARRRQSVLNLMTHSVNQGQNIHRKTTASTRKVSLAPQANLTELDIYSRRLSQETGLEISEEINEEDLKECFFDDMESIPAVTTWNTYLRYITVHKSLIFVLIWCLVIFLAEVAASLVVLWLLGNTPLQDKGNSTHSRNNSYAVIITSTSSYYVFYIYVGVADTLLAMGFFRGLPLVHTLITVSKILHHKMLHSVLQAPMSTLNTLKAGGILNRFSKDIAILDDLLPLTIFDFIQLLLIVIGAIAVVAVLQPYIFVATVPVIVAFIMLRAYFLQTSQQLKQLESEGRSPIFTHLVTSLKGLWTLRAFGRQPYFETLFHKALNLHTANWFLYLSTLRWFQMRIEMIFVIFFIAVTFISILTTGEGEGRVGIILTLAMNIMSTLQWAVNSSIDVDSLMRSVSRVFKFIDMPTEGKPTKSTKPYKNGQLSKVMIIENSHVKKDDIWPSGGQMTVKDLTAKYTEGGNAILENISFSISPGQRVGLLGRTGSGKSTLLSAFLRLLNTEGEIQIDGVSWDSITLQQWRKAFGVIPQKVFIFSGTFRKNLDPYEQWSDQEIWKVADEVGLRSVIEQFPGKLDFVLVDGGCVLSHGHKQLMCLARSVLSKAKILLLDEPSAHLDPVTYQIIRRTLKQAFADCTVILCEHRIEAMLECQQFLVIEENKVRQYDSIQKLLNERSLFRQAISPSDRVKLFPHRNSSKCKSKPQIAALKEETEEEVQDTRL
The experiment in a line: ΔF508-CFTR-HRP trafficking assay (cell surface expression of ΔF508-CFTR). Format: cell-based. The settings on record: CFSMEo- cells transiently transfected with ΔF508-CFTR-HRP; test agent 3 μM, 48 h; HRP chemiluminescence. The text has this:
Test agents were screened for their effect on cell surface expression of ΔF508-CFTR using the ΔF508-CFTR-HRP trafficking assay. For this assay, a ΔF508-CFTR expression construct was designed with an in-frame insertion of a horseradish peroxidase (HRP) tag into the 4th extracellular loop of CFTR. The HRP tag would be presented extracellularly, in cells transiently transfected with the ΔF508-CFTR-HRP construct, following correction of the ΔF508-CFTR trafficking defect. The quantity of ΔF508-CFTR-HRP expressed on the plasma membrane could therefore be determined by measuring an HRP-dependent signal after the application of a cell-impermeable HRP substrate.
In brief, CF submucosal gland epithelial cells (CFSMEo-), derived from the airways of a CF patient (ΔF508/Q2X) and provided by Dr. Dieter Gruenert, University of California-San Francisco, were cultured at 37° C. with 5% CO2 in minimum essential medium (MEM) with Earle's salt and nonessential amino acids, supplemented with 10% (volume per volume [v/v]) fetal bovine serum, 2 mM L-glutamine and 1× (v/v) penicillin/streptomycin and grown in tissue culture-treated flasks coated with an extracellular matrix (ECM) cocktail consisting of 10 μg/mL human fibronectin, 30 μg/mL bovine collagen type I, and 100 μg/mL bovine serum albumin in LHC basal medium. These CFSMEo^− cells were transiently transfected with 4 μg of the ΔF508-CFTR-HRP expression construct using the Lonza 4D-Nucleofector Core unit (Lonza, Catalogue No. AAF-1002B) with the X unit (Lonza, Catalogue No. AAF-1002X) and SF Cell Line 4D-Nucleofector X Kit L (Lonza, Catalogue No. V4XC-2024) according to the manufacturer's instructions and plated at 1.2×10^4 cells/well onto collagen-coated, 96-well plates (Corning Inc.). Twenty-four h post-transfection, cells were treated with test agents, solubilized in DMSO at a concentration of 3 μM in replicates of 3, and allowed to incubate for 48 h. To detect HRP expression, cell culture media was removed, cells were washed with PBS and 100 μL of Luminata Forte HRP chemiluminescent substrate (EMD Millipore, Burlington, MA) was added to each well. Following a 5-minute incubation, chemiluminescence was measured in relative luminescent units (RLUs) using an EnVision plate reader (Perkin Elmer, Waltham, MA).
The ΔF508-CFTR-HRP trafficking data was normalized to the vehicle treated control (0.3% DMSO), followed by calculation of the mean, standard deviation, and standard error. If the test agent increased cell surface expression of ΔF508-CFTR-HRP relative to the vehicle-treated control, then that test agent was considered a ΔF508-CFTR corrector. Based on the description above, the biological activity of the examples in this disclosure is collected in Table 2.
`C[C@H](Nc1cccc(-n2nc(C(F)(F)F)c3c2[C@H](OC24CC(C(=O)O)(C2)C4)CCC3)n1)c1ccc2c(c1)OC(F)(F)O2` (single isomer, unassigned) [100 (P2)]: the “RLUs: ΔF508-CFTR-HRP trafficking data normalized to the vehicle treated control (0.3% DMSO)” value is on record as “C (RLU 0.0 μM-3.5 μM)”.

As to `C[C@H](Oc1cc(-n2nc(C(F)(F)F)c3c2[C@@H](OC24CCC(C(=O)O)(CC2)CC4)CCC3)cc(F)n1)c1ccc2c(c1)OC(F)(F)O2` (single isomer, unassigned) [81 (P2)], the “RLUs: ΔF508-CFTR-HRP trafficking data normalized to the vehicle treated control (0.3% DMSO)” value is “C (RLU 0.0 μM-3.5 μM)”.

Consider `C[C@H](Nc1nc(-n2nc(C(F)(F)F)c3c2[C@@H](OC24CC(C(=O)O)(C2)C4)CCC3)ccc1F)c1ccc2c(c1)OC(F)(F)O2` (single isomer, unassigned) [101 (P1)], for which the “RLUs: ΔF508-CFTR-HRP trafficking data normalized to the vehicle treated control (0.3% DMSO)” value is on record as “C (RLU 0.0 μM-3.5 μM)”.

Turning to `C[C@H](Oc1cc(-n2nc(C(F)(F)F)c3c2[C@@H](O[C@H]2CC[C@H](C(=O)O)CC2)CCC3)cnn1)c1ccc2c(c1)OC(F)(F)O2` (single isomer, unassigned) [Example 55], the “RLUs: ΔF508-CFTR-HRP trafficking data normalized to the vehicle treated control (0.3% DMSO)” value is listed as “C (RLU 0.0 μM-3.5 μM)”.

In the case of `C[C@H](Oc1cccc(-n2nc(C(F)(F)F)c3c2[C@H](C(=O)N2CCC(C(=O)O)CC2)CCC3)c1)c1ccc2c(c1)OC(F)(F)O2` (single isomer, unassigned) [120 (P2)], the “RLUs: ΔF508-CFTR-HRP trafficking data normalized to the vehicle treated control (0.3% DMSO)” value was “C (RLU 0.0 μM-3.5 μM)”.

In the case of `CC(Oc1cccc(-n2nc(C(F)(F)F)c3c2C(Oc2ccc(C(=O)O)cc2)CCC3)c1)c1ccc2c(c1)OC(F)(F)O2` (stereo not drawn) [Example 19, 4-[[1-[3-[1-(2,2-difluoro-1,3-benzodioxol-5-yl)ethoxy]phenyl]-3-(trifluoromethyl)-4,5,6,7-tetrahydroindazol-7-yl]oxy]benzoic acid], the “RLUs: ΔF508-CFTR-HRP trafficking data normalized to the vehicle treated control (0.3% DMSO)” value is “B (RLU 3.5 μM-5.0 μM)”.

In the case of `C[C@H](Oc1cccc(-n2nc(C(F)(F)F)c3c2[C@@H](Oc2ccc(C(=O)O)cc2)CCC3)n1)c1ccc2c(c1)OC(F)(F)O2` (single isomer, unassigned) [Example 36c], the “RLUs: ΔF508-CFTR-HRP trafficking data normalized to the vehicle treated control (0.3% DMSO)” value is listed as “B (RLU 3.5 μM-5.0 μM)”.

Regarding `C[C@H](Oc1cncc(-n2nc(C(F)(F)F)c3c2N(Cc2ccc(C(=O)O)cc2)CCC3)c1)c1ccc2c(c1)OC(F)(F)O2` (single isomer, unassigned) [Example 12], the “RLUs: ΔF508-CFTR-HRP trafficking data normalized to the vehicle treated control (0.3% DMSO)” value was “C (RLU 0.0 μM-3.5 μM)”.

For the molecule `C[C@H](Oc1cc(-n2nc(C#N)c3c2[C@@H](OC24CC(C(=O)O)(C2)C4)CCC3)ccc1F)c1ccc2c(c1)OC(F)(F)O2` (single isomer, unassigned) [105 (P1)], the “RLUs: ΔF508-CFTR-HRP trafficking data normalized to the vehicle treated control (0.3% DMSO)” value is “B (RLU 3.5 μM-5.0 μM)”.

For `C[C@H](Nc1cc(-c2nn(C3COC3)c3c2[C@@H](Oc2ccc(C(=O)O)cc2)CCC3)ccn1)c1ccc2c(c1)OC(F)(F)O2` (single isomer, unassigned) [Example 127], the “RLUs: ΔF508-CFTR-HRP trafficking data normalized to the vehicle treated control (0.3% DMSO)” value was “A (RLU 5.0 μM-10 μM)”.

On to `C[C@H](Oc1cccc(-n2nc(C(F)(F)F)c3c2C(Oc2ccc(C(=O)O)cc2)CCC3)c1)c1ccc2c(c1)OC(F)(F)O2` (stereo partly drawn) [Example 29], for which the “RLUs: ΔF508-CFTR-HRP trafficking data normalized to the vehicle treated control (0.3% DMSO)” value is listed as “B (RLU 3.5 μM-5.0 μM)”.

Turning to `C[C@H](Nc1cc(-n2nc(C(F)(F)F)c3c2[C@@H](NC24CC(C(=O)O)(C2)C4)CCC3)ccc1F)c1ccc2c(c1)OC(F)(F)O2` (single isomer, unassigned) [94 (P1)], the “RLUs: ΔF508-CFTR-HRP trafficking data normalized to the vehicle treated control (0.3% DMSO)” value was “C (RLU 0.0 μM-3.5 μM)”.

Regarding `C[C@H](Oc1cncc(-n2nc(C(F)(F)F)c3c2[C@@H](OC24CC(C(=O)O)(C2)C4)CCC3)c1)c1cc2c(cc1F)OC(F)(F)O2` (single isomer, unassigned) [74 (P1)], the “RLUs: ΔF508-CFTR-HRP trafficking data normalized to the vehicle treated control (0.3% DMSO)” value is reported as “A (RLU 5.0 μM-10 μM)”.

For `C[C@H](Oc1cc(-n2nc(C(F)(F)F)c3c2N(C[C@H]2CC[C@H](C(=O)O)CC2)CCC3)ccn1)c1ccc2c(c1)OC(F)(F)O2` (single isomer, unassigned) [Example 7], the “RLUs: ΔF508-CFTR-HRP trafficking data normalized to the vehicle treated control (0.3% DMSO)” value is “A (RLU 5.0 μM-10 μM)”.

On to `C[C@H](Nc1cc(-n2nc(C(F)(F)F)c3c2[C@@H](OC24CC(C(=O)O)(C2)C4)CCC3)ccc1F)c1cc2c(cc1F)OC(F)(F)O2` (single isomer, unassigned) [96 (P1)], for which the “RLUs: ΔF508-CFTR-HRP trafficking data normalized to the vehicle treated control (0.3% DMSO)” value is “B (RLU 3.5 μM-5.0 μM)”.

For `C[C@H](Oc1cc(-n2nc(C(F)(F)F)c3c2[C@@H](Nc2ccc(C(=O)O)cc2)CCC3)ccn1)c1cc2c(cc1F)OC(F)(F)O2` (single isomer, unassigned) [Example 110], the “RLUs: ΔF508-CFTR-HRP trafficking data normalized to the vehicle treated control (0.3% DMSO)” value is on record as “B (RLU 3.5 μM-5.0 μM)”.

As to `C[C@H](Oc1cccc(-n2nc(C(F)(F)F)c3c2[C@@H](Oc2ccc(C(=O)O)cc2)CCC3)c1)c1cc2c(cc1F)OC(F)(F)O2` (single isomer, unassigned) [Example 36g], the “RLUs: ΔF508-CFTR-HRP trafficking data normalized to the vehicle treated control (0.3% DMSO)” value is listed as “B (RLU 3.5 μM-5.0 μM)”.

Regarding `C[C@H](Oc1cc(-n2nc(C(F)(F)F)c3c2[C@@H](Oc2ccc(C(=O)O)cc2)CCC3)ccc1F)c1cc2c(cc1F)OC(F)(F)O2` (single isomer, unassigned) [Example 36j], the “RLUs: ΔF508-CFTR-HRP trafficking data normalized to the vehicle treated control (0.3% DMSO)” value is given as “C (RLU 0.0 μM-3.5 μM)”.

For the molecule `C[C@H](Oc1cccc(-n2nc(C(F)(F)F)c3c2N(CC24CC(C(=O)O)(C2)C4)CCC3)c1)c1ccc2c(c1)OC(F)(F)O2` [Example 11, 3-[[1-[3-[(1S)-1-(2,2-difluoro-1,3-benzodioxol-5-yl)ethoxy]phenyl]-3-(trifluoromethyl)-5,6-dihydro-4H-pyrazolo[3,4-b]pyridine-7-yl]methyl]bicyclo[1.1.1]pentane-1-carboxylic acid], the “RLUs: ΔF508-CFTR-HRP trafficking data normalized to the vehicle treated control (0.3% DMSO)” value is “A (RLU 5.0 μM-10 μM)”.

For the molecule `C[C@H](Oc1cc(-n2nc(C#N)c3c2[C@H](OC24CC(C(=O)O)(C2)C4)CCC3)ccc1F)c1ccc2c(c1)OC(F)(F)O2` (single isomer, unassigned) [105 (P2)], the “RLUs: ΔF508-CFTR-HRP trafficking data normalized to the vehicle treated control (0.3% DMSO)” value is listed as “B (RLU 3.5 μM-5.0 μM)”.

As for `C[C@H](Nc1cc(-n2nc(C(F)(F)F)c3c2[C@@H](Nc2ccc(C(=O)O)cc2)CCC3)ccn1)c1ccc2c(c1)OC(F)(F)O2` (single isomer, unassigned) [Example 93], the “RLUs: ΔF508-CFTR-HRP trafficking data normalized to the vehicle treated control (0.3% DMSO)” value is reported as “A (RLU 5.0 μM-10 μM)”.

`C[C@H](Nc1cc(-n2nc(C(F)(F)F)c3c2[C@@H](OC24CC(c5nc(=O)o[nH]5)(C2)C4)CCC3)ccc1F)c1ccc2c(c1)OC(F)(F)O2` (single isomer, unassigned) [102 (P1)]: the “RLUs: ΔF508-CFTR-HRP trafficking data normalized to the vehicle treated control (0.3% DMSO)” value is “C (RLU 0.0 μM-3.5 μM)”.

As to `C[C@H](Oc1cccc(-n2nc(C(F)(F)F)c3c2C(O[C@H]2CC[C@H](C(=O)O)CC2)CCC3)c1)c1ccc2c(c1)OC(F)(F)O2` (relative stereo) [Example 37], the “RLUs: ΔF508-CFTR-HRP trafficking data normalized to the vehicle treated control (0.3% DMSO)” value is listed as “A (RLU 5.0 μM-10 μM)”.

`C[C@H](Oc1cc(-n2nc(C(F)(F)F)c3c2N(CC24CC(C(=O)O)(C2)C4)CCC3)cnn1)c1ccc2c(c1)OC(F)(F)O2` (single isomer, unassigned) [Example 6]: the “RLUs: ΔF508-CFTR-HRP trafficking data normalized to the vehicle treated control (0.3% DMSO)” value is given as “C (RLU 0.0 μM-3.5 μM)”.

For the molecule `C[C@H](Nc1cc(-n2nc(C(F)(F)F)c3c2[C@H](NC24CC(C(=O)O)(C2)C4)CCC3)ccc1F)c1ccc2c(c1)OC(F)(F)O2` (single isomer, unassigned) [94 (P2)], the “RLUs: ΔF508-CFTR-HRP trafficking data normalized to the vehicle treated control (0.3% DMSO)” value was “C (RLU 0.0 μM-3.5 μM)”.

With `C[C@H](Oc1cccc(-c2nn(CC(F)(F)F)c3c2[C@@H](Oc2ccc(C(=O)O)cc2)CCC3)n1)c1ccc2c(c1)OC(F)(F)O2` (single isomer, unassigned) [Example 126], the “RLUs: ΔF508-CFTR-HRP trafficking data normalized to the vehicle treated control (0.3% DMSO)” value is “A (RLU 5.0 μM-10 μM)”.

With `C[C@H](Oc1cncc(-n2nc(C(F)(F)F)c3c2[C@@H](O[C@H]2CC[C@H](C(=O)O)CC2)CCC3)c1)c1ccc2c(c1)OC(F)(F)O2` (single isomer, unassigned) [Example 66], the “RLUs: ΔF508-CFTR-HRP trafficking data normalized to the vehicle treated control (0.3% DMSO)” value is “A (RLU 5.0 μM-10 μM)”.
